According to PMC9321663, “The DevTox Germ Layer Reporter Platform: An Assay Adaptation of the Human Pluripotent Stem Cell Test” (Toxics, 2022):
Like-named read-outs stand apart in the source and are kept apart here. Blank lines part the entries; values can stand above or below the compound they belong to. Starred links: 1 amine or outer side, 2 acyl side, 3 side chain; linkers in the order of their positions; H or OH if unused. Positions of bridges follow the written chain, without caps; N, C: chain ends. Non-standard residues stand in square brackets, D forms with d. Residues, ends and D or L forms follow the SMILES beside them. Chains are numbered I, II in the order given. Actinocin(9to1) = Cc1c2oc3c(C)ccc(C(=O)[*:1])c3nc-2c(C(=O)[*:2])c(N)c1=O; NMeV = CN[C@H](C(=O)O)C(C)C; Sar = CNCC(=O)O

Legend:
[1] = tested on: SOX17 (endoderm marker) in RUES2-GLR cells; experiment: DevTox GLR-Endo assay: decrease in percent SOX17-positive cells (AEID 3094, Sox17_dn); details: for Hit Call: Table S2, SOX17-positive cells, cutoff 3*bmad; for DevTox ACC: Table S2, percent SOX17-positive cells; for HIT−CALL: tcpl plot AEID3094, COFF 20.3
Summary of the method: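 RUES2-GLR cells under endoderm differentiation exposed to test chemicals for 48 h in total, with 0.2% DMSO solvent control and SB431542 (1 µM) as developmental-toxicant control. Endpoints: decrease in total cell count and in percent SOX17-positive cells; n = 4 biological replicates minimum.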

in vitro = details: human
RUES2-GLR cells = experiment: DevTox GLR-Endo assay: decrease in total cell count, cytotoxicity (AEID 3098, CellCount_dn); details: for Emax: Homo sapiens, read-out: Cell Count % Max Inhibition
[2] = tested on: SOX17 (endoderm marker) in RUES2-GLR cells; experiment: DevTox GLR-Endo assay: increase in percent SOX17-positive cells (AEID 3093, Sox17_up); type: cell-based, human; details: for Emax: Homo sapiens; for HIT−CALL: tcpl plot AEID3093, COFF 20.3
Procedure: (§1) The total test chemical incubation period was 48 h.
(§2) (Supplementary Materials).

[3] = tested on: SOX17 in H9 human ESC line; details: SOX17 half-maximal inhibition concentration; read-out: hPST IC50; cited from earlier work
H9 human ESC line = details: cited from earlier work
[4] = cited from earlier work; for Development Toxicant Classification: Table S2; for Classification: developmental toxicant classification (Teratogen / Non-Teratogen) of reference and training chemicals, ref DOI per chemical: 10.1093/toxsci/kft239, 10.1093/toxsci/kfaa014, 10.1177/026119290203000204, 10.1038/s41598-020-59542-x; for DT Class.: developmental toxicant classification, chemicals common with hPST
[5] = tested on: SOX2 (ectoderm and pluripotency marker) in RUES2-GLR cells; experiment: DevTox GLR-Endo assay: increase in percent SOX2-positive cells (AEID 3095, Sox2_up); details: for AC50 / Emax: Homo sapiens; for AC50: read-out: ga (winning model); for Emax: read-out: tp (winning model); for MAX_MEAN: tcpl plot AEID3095, maximum mean response; for MAX_MED: tcpl plot AEID3095, maximum median response
Procedure: RUES2-GLR cells were seeded 24 h prior to differentiation initiation into vitronectin-coated 384-well CellCarrier Ultra plates (10.6 mm^2/well) (Perkin Elmer, Waltham, MA, USA). Vitronectin (0.5 µg/cm^2)-coated plates were prepared and stored at 4 °C, wrapped in parafilm, for less than seven days and incubated at room temperature for one hour prior to cell seeding. […] Cells were dispensed into 20 µL coating solution using a Certus FLEX Micro Dispenser (Fritz Gyger, Gwatt, Switzerland) with a 0.45 µm valve to a final volume of 100 µL and density of 2.8 × 10^3 cells per well.
Following a 24 h post-seeding incubation period (Time = 0 h) (Figure 3A), directed endoderm differentiation was initiated with the PSC Definitive Endoderm Induction kit (Gibco, Waltham, MA, USA). […] A target dilution series (0.002–200 µM) was generated by dispensing variable nanoliter volumes of test chemical and backfilling with a complementary volume of DMSO using Echo Cherry Pick software (v.1.6.2). Wells were backfilled with 50 µL of induction medium using a Certus FLEX Micro Dispenser with 0.45 µm valves. Test compound treatment plates were mixed on a Multi-Microplate Genie mixer at 700 rpm for 10 min and subsequently incubated for two hours in a humidified atmosphere at 37 °C with 5% CO2. Each chemical treatment (0 h–Medium A; 24 h–Medium B) were prepared the day of treatment. At 0 h, cell culture medium was aspirated from the assay plate at a rate of 1 µL/s and 40 µL of Medium A ± test chemical applied using a CyBio FeliX automated liquid handler (Analytik Jena, Jena, Germany). At 24 h, conditioned cell culture medium was aspirated and 40 µL of Medium B ± test chemical was applied. At 48 h, cells were prepared for high-content image acquisition by fixation and nuclear staining. The total test chemical incubation period was 48 h. For fixation, a 4% paraformaldehyde (PFA) solution was achieved by adding 40 µL of 8% PFA directly to cell culture medium using a CyBio FeliX liquid handler. […] Following an additional 30 min incubation period at room temperature, staining solution was aspirated, 50 µL of DPBS was added, and plate sealed with MicroAmp Optical Adhesive Film (Applied Biosystems, Waltham, MA, USA).
Images were acquired within 12 h post-fixation using an Opera Phenix High-Content Screening System (Perkin Elmer, Waltham, MA, USA). […] Cell identification and mean biomarker fluorescent intensities were calculated using Harmony image analysis software (Perkin Elmer, Waltham, MA, USA). Cell nuclei were identified using the object classifying algorithm C of the software with border objects excluded using the “Remove Border Objects” feature. Mean cell biomarker intensity statistics were gathered from each object and exported for further analysis using a custom script in Python version 3.7.4 [61] […] For each plate, pluripotent-negative control wells were used to establish baseline intensity values and a cutoff threshold for determining SOX17 and BRA biomarker-positive cells. Endoderm differentiated positive control wells were used to establish baseline intensity values and a cutoff threshold for SOX2-positive cells. Cells with a mean intensity five times the baseline median absolute deviation (5*bmad) above the median cell intensity for plate-based control population technical replicates were considered positive. Well-based cell counts, reflected by the sum of total counted objects from all fields, were used to calculate the percent responders for each respective biomarker and evaluate cytotoxicity. Well-level results were exported for data modeling in the ToxCast Pipeline.
The ToxCast Pipeline R package (tcpl v.2.0.2) was used to normalize, fit, and qualify concentration-response screening data [63].

[6] = tested on: BRA (mesoderm marker) in RUES2-GLR cells; experiment: DevTox GLR-Endo assay: increase in percent BRA-positive cells (AEID 3096, Bra_up); type: cell-based, human; details: for HIT−CALL: tcpl plot AEID3096, COFF 0.774; for MAX_MEAN: tcpl plot AEID3096, maximum mean response
Procedure: as §1, §2

[7] = Homo sapiens, 48 h, read-out: DevTox-GLR Endo AC50 (µM), SOX17 half-maximal activity concentration, 48 h exposure
[8] = Homo sapiens, read-out: DevTox % Max Inhibition
[9] = Homo sapiens, read-out: MAX_MEAN
[10] = Homo sapiens, read-out: MAX_MED
[11] = Homo sapiens, read-out: tp (winning model)
[12] = tcpl plot AEID3093, maximum mean response, read-out: MAX_MEAN
[13] = tcpl plot AEID3093, maximum median response, read-out: MAX_MED
[14] = cytotoxicity half-maximal concentration
[15] = Homo sapiens, 48 h, read-out: DevTox-GLR Endo AC50 (µM)

Structure (SMILES): Cc1c2oc3c(C)ccc(C(=O)N[C@@H]4C(=O)N[C@H](C(C)C)C(=O)N5CCC[C@H]5C(=O)N(C)CC(=O)N(C)[C@@H](C(C)C)C(=O)O[C@@H]4C)c3nc-2c(C(=O)N[C@@H]2C(=O)N[C@H](C(C)C)C(=O)N3CCC[C@H]3C(=O)N(C)CC(=O)N(C)[C@@H](C(C)C)C(=O)O[C@@H]2C)c(N)c1=O [Actinomycin D] (I: T[dV]P[Sar][NMeV] / II: T[dV]P[Sar][NMeV]; ester I:1-I:C, II:1-II:C; linker I:N-II:N via Actinocin(9to1))
SOX17 ACC relative to cytotoxic concentration (in words) [1]: below cytotoxic concentrations
AC50 [1, 15]: 0.037 nM
Emax [1, 8]: 101%
Emax [1, 9]: 102%
Emax [1, 10]: 101%
AC50 ([1]; Homo sapiens, read-out: ga (winning model)): 0.0363 nM
Emax [1, 11]: 101%
Hit Call [1]: Positive
DevTox ACC ([1]; 48 h exposure): 2.881e-05 µM
HIT−CALL [1]: 1
CC50 (in vitro): 0.00048 µM
Emax (RUES2-GLR cells): 96%
Cell Count ACC (RUES2-GLR cells; Table S2, 48 h exposure): 0.0003574 µM
Emax ([2]; read-out: MAX_MEAN): 6.35%
Emax ([2]; read-out: MAX_MED): 3.62%
HIT−CALL [2]: 0
IC50 [3]: < 0.01 µM
hPST TC50 (H9 human ESC line; [14]): <0.01 µM
hPST TC50 (H9 human ESC line; hPST cytotoxicity): < 0.01 µM
Development Toxicant Classification [4]: Positive
Classification [4]: Teratogen
DT Class. [4]: Pos
AC50 [5]: 0.1 µM
Emax [5]: 24%
MAX_MEAN [5]: 20.2 Percent Activity
MAX_MED [5]: 20.2 Percent Activity

Structure (SMILES): Cn1c(=O)c2c(ncn2C)n(C)c1=O [Caffeine]
AC50 [1, 15]: > 200000 nM
Emax [1, 8]: 9.41%
Emax [1, 9]: 6.68%
Emax [1, 10]: 9.41%
Hit Call [1]: Negative
DevTox ACC ([1]; 48 h exposure): >200 µM
HIT−CALL [1]: 0
CC50 at 48 h (in vitro): > 200 µM
Emax (RUES2-GLR cells): 10.3%
Cell Count ACC (RUES2-GLR cells; human, 48 h): >200 µM
Emax [2, 12]: 9.91%
Emax [2, 13]: 11%
HIT−CALL [2]: 0
HIT−CALL [6]: 1
MAX_MEAN [6]: 1.09 Percent Activity
IC50 [3]: > 400 µM
MAX_MEAN [5]: 0.413 Percent Activity
MAX_MED [5]: 0.416 Percent Activity

Structure (SMILES): CC1=C(/C=C/C(C)=C/C=C/C(C)=C\C(=O)O)C(C)(C)CCC1
SOX17 ACC relative to cytotoxic concentration (in words) [1]: below cytotoxic concentrations
Hit Call [1]: Positive
DevTox % Max Inhibition ([1]; Table S2, percent SOX17-positive cells relative to DMSO): 100.964%
DevTox ACC ([1]; 48 h exposure): 0.02117 µM
AC50 ([1]; read-out: DevTox-GLR Endo AC50, SOX17 half-maximal activity concentration, 48 h exposure): 160 nM
HIT−CALL [1]: 1
ga (winning model) ([1]; tcpl plot AEID3094, gain parameter of winning curve fit (log concentration, µM axis), hit calls only): −0.807
MAX_MEAN ([1]; tcpl plot AEID3094, maximum mean response): 101 Percent Activity
MAX_MED ([1]; tcpl plot AEID3094, maximum median response): 101 Percent Activity
tp (winning model) ([1]; tcpl plot AEID3094, top of winning curve fit (Hill or gain-loss), hit calls only): 100
Cell Count ACC (RUES2-GLR cells): 4.122 µM
Cell Count % Max Inhibition (RUES2-GLR cells; Table S2, cell count relative to DMSO): 97.7228%
CC50 (RUES2-GLR cells; read-out: DevTox-GLR Endo CC50, cell count half-maximal concentration, 48 h exposure): 10.2 µM
HIT−CALL [2]: 0
MAX_MEAN ([2]; tcpl plot AEID3093, maximum mean response): −11.9 Percent Activity
MAX_MED ([2]; tcpl plot AEID3093, maximum median response): −11.9 Percent Activity
IC50 [3]: 0.2 µM
hPST TC50 (H9 human ESC line; [14]): 140 µM
hPST TC50 (H9 human ESC line; hPST cytotoxicity): 140 µM
Development Toxicant Classification [4]: Positive
Classification [4]: Teratogen
DT Class. [4]: Pos
ga (winning model) ([5]; tcpl plot AEID3095, gain parameter of winning curve fit (log concentration, µM axis), hit calls only): 1.54
MAX_MEAN [5]: 47.5 Percent Activity
MAX_MED [5]: 48.5 Percent Activity
tp (winning model) ([5]; tcpl plot AEID3095, top of winning curve fit (Hill or gain-loss), hit calls only): 39.6

Structure (SMILES): Nc1nc2c(ncn2COCCO)c(=O)[nH]1 [Acyclovir]
Emax [1, 8]: 7.79%
Emax [1, 9]: 8.36%
Emax [1, 10]: 7.79%
Hit Call [1]: Negative
HIT−CALL [1]: 0
Emax (RUES2-GLR cells): 7.77%
Cell Count ACC (RUES2-GLR cells; human, 48 h): >200 µM
Emax [2, 12]: 6.68%
Emax [2, 13]: 7.67%
HIT−CALL [2]: 0
HIT−CALL [6]: 1
MAX_MEAN [6]: 0.981 Percent Activity
MAX_MED ([6]; tcpl plot AEID3096, maximum median response): 1.09 Percent Activity
IC50 [3]: > 200 µM
MAX_MEAN [5]: 2.09 Percent Activity
MAX_MED [5]: 0.473 Percent Activity

Structure (SMILES): Nc1nc2ncc(CNc3ccc(C(=O)N[C@@H](CCC(=O)O)C(=O)O)cc3)nc2c(=O)[nH]1 [Folic Acid]
AC50 [1, 7]: > 200000 nM
Emax [1, 8]: 16.4%
Emax [1, 9]: 13.8%
Emax [1, 10]: 16.4%
Hit Call [1]: Negative
DevTox ACC ([1]; 48 h exposure): >200 µM
HIT−CALL [1]: 0
CC50 at 48 h (in vitro): > 200 µM
Emax (RUES2-GLR cells): 13.7%
Cell Count ACC (RUES2-GLR cells; human, 48 h): >200 µM
Emax [2, 12]: 8.84%
Emax [2, 13]: 8.92%
HIT−CALL [2]: 0
IC50 [3]: 39 µM
hPST TC50 (H9 human ESC line; [14]): 84 µM
hPST TC50 (H9 human ESC line; hPST cytotoxicity): 84 µM
MAX_MEAN [5]: 0.885 Percent Activity
MAX_MED [5]: 0.515 Percent Activity

The next lines start with results.

Cell Count ACC (RUES2-GLR cells; human, 48 h): 1.527 µM
Structure (SMILES): O=C1Cc2cc(CCN3CCN(c4nsc5ccccc45)CC3)c(Cl)cc2N1 [Ziprasidone]
AC50 [1, 7]: 3570 nM
Emax [1, 8]: 101%
Emax [1, 9]: 101%
Emax [1, 10]: 101%
AC50 ([1]; Homo sapiens, read-out: ga (winning model), tcpl plot AEID3094, gain parameter of winning curve fit (log concentration, µM axis), hit calls only (converted)): 3560 nM
Emax [1, 11]: 101%
Hit Call [1]: Positive
DevTox ACC ([1]; 48 h exposure): 2.997 µM
HIT−CALL [1]: 1
CC50 at 48 h (in vitro): 2.42 µM
Emax (RUES2-GLR cells): 93.7%
Emax [2, 12]: 3.27%
Emax [2, 13]: 4.35%
HIT−CALL [2]: 0
IC50 [3]: 2.8 µM
hPST TC50 (H9 human ESC line; [14]): 5.1 µM
hPST TC50 (H9 human ESC line; hPST cytotoxicity): 5.1 µM
Development Toxicant Classification [4]: Positive
Classification [4]: Teratogen
DT Class. [4]: Pos
AC50 [5]: 3.67 µM
Emax [5]: 4.2%
MAX_MEAN [5]: 4.63 Percent Activity
MAX_MED [5]: 4.3 Percent Activity

Cell Count ACC (RUES2-GLR cells; human, 48 h): 122.424 µM
Structure (SMILES): CC(C)Cc1ccc(C(C)C(=O)O)cc1 (centres unmarked) [Ibuprofen]
Emax [1, 8]: 23.9%
Emax [1, 9]: 24.3%
Emax [1, 10]: 23.9%
Emax [1, 11]: 42.6%
Hit Call [1]: Positive
HIT−CALL [1]: 1
Emax (RUES2-GLR cells): 22.2%
Emax [2, 12]: 11.6%
Emax [2, 13]: 11.9%
HIT−CALL [2]: 0
IC50 [3]: > 200 µM
MAX_MEAN [5]: 0.944 Percent Activity
MAX_MED [5]: 0.561 Percent Activity
